According to the supplement of paper PMC13207355:
Counter-ions that a name gives are not always drawn.

What was measured:
Details in all cases: exposure time: 72 h
E13 [1] = patient-derived glioblastoma stem cells of classical subtype; assay: surviving fraction (nuclei count normalised to DMSO); higher = more cells surviving (less toxic)
E21 [2] = patient-derived glioblastoma stem cells of mesenchymal subtype; assay: as above
E28 [3] = patient-derived glioblastoma stem cells of classical subtype; assay: as above
E31 [4] = patient-derived glioblastoma stem cells of proneural subtype; assay: as above
E34 [5] = patient-derived glioblastoma stem cells of proneural subtype; assay: as above
E57 [6] = patient-derived glioblastoma stem cells of mesenchymal subtype; assay: as above
FT3469 [7] = normal neural stem cell line; assay: as above
E13 [8] = assay: phenotypic distance (Euclidean, principal components) from DMSO controls (arbitrary units); higher = stronger morphological change
E21 [9] = assay: as above
E28 [10] = assay: as above
E31 [11] = assay: as above
E34 [12] = assay: as above
E57 [13] = assay: as above
FT3469 [14] = assay: as above
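Throughout, for phenotypic distance (Euclidean, principal components) from DMSO controls: cell Painting imaging in 384-well plates, CellProfiler features reduced to at least 20 principal components, Euclidean distance versus same-plate DMSO vehicle wells (0.1% v/v), median over six images per well.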
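Throughout, for surviving fraction (nuclei count normalised to DMSO): nuclei counted by high-content imaging of Hoechst-stained cells in laminin-coated 384-well plates, relative to 0.1% DMSO vehicle wells, with staurosporine as cell-death control.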

CCC(C)(C)c1ccc(CC(C)CN2C[C@@H](C)O[C@@H](C)C2)cc1 (stereo partly specified) [Amorolfine hydrochloride]
Details | phenotypic distance | surviving fraction
E13 [1], 4.1 nM | – | 0.95
E13 [1], 12.3 nM | – | 0.95
E13 [1], 37 nM | – | 1
E13 [1], 111.1 nM | – | 0.97
E13 [1], 333.3 nM | – | 0.959
E13 [1], 1000 nM | – | 0.957
E13 [1], 3000 nM | – | 0.638
E13 [8], 4.1 nM | 0.768 | –
E13 [8], 12.3 nM | 0.554 | –
E13 [8], 37 nM | 0.708 | –
E13 [8], 111.1 nM | 0.428 | –
E13 [8], 333.3 nM | 0.915 | –
E13 [8], 1000 nM | 1.17 | –
E13 [8], 3000 nM | 3.08 | –
E21 [2], 4.1 nM | – | 0.94
E21 [2], 12.3 nM | – | 1.02
E21 [2], 37 nM | – | 0.982
E21 [2], 111.1 nM | – | 1.09
E21 [2], 333.3 nM | – | 1.03
E21 [2], 1000 nM | – | 1.07
E21 [2], 3000 nM | – | 0.816
E21 [9], 4.1 nM | 0.885 | –
E21 [9], 12.3 nM | 0.483 | –
E21 [9], 37 nM | 0.732 | –
E21 [9], 111.1 nM | 0.989 | –
E21 [9], 333.3 nM | 1.11 | –
E21 [9], 1000 nM | 1.17 | –
E21 [9], 3000 nM | 1.97 | –
E28 [3], 4.1 nM | – | 1.09
E28 [3], 12.3 nM | – | 0.852
E28 [3], 37 nM | – | 1.21
E28 [3], 111.1 nM | – | 0.914
E28 [3], 333.3 nM | – | 1.17
E28 [3], 1000 nM | – | 0.839
E28 [3], 3000 nM | – | 0.777
E28 [10], 4.1 nM | 0.829 | –
E28 [10], 12.3 nM | 0.874 | –
E28 [10], 37 nM | 0.838 | –
E28 [10], 111.1 nM | 0.682 | –
E28 [10], 333.3 nM | 0.846 | –
E28 [10], 1000 nM | 0.746 | –
E28 [10], 3000 nM | 1.38 | –
E31 [4], 4.1 nM | – | 0.939
E31 [4], 12.3 nM | – | 0.934
E31 [4], 37 nM | – | 0.967
E31 [4], 111.1 nM | – | 0.983
E31 [4], 333.3 nM | – | 1.05
E31 [4], 1000 nM | – | 0.996
E31 [4], 3000 nM | – | 0.804
E31 [11], 4.1 nM | 0.639 | –
E31 [11], 12.3 nM | 0.653 | –
E31 [11], 37 nM | 0.833 | –
E31 [11], 111.1 nM | 0.88 | –
E31 [11], 333.3 nM | 0.504 | –
E31 [11], 1000 nM | 1.35 | –
E31 [11], 3000 nM | 2.01 | –
E34 [5], 4.1 nM | – | 0.983
E34 [5], 12.3 nM | – | 1.06
E34 [5], 37 nM | – | 0.937
E34 [5], 111.1 nM | – | 1.06
E34 [5], 333.3 nM | – | 1.09
E34 [5], 1000 nM | – | 1.14
E34 [5], 3000 nM | – | 0.815
E34 [12], 4.1 nM | 0.551 | –
E34 [12], 12.3 nM | 1.11 | –
E34 [12], 37 nM | 1.1 | –
E34 [12], 111.1 nM | 1.17 | –
E34 [12], 333.3 nM | 0.856 | –
E34 [12], 1000 nM | 0.796 | –
E34 [12], 3000 nM | 1.7 | –
E57 [6], 4.1 nM | – | 1
E57 [6], 12.3 nM | – | 0.954
E57 [6], 37 nM | – | 1.05
E57 [6], 111.1 nM | – | 1.02
E57 [6], 333.3 nM | – | 0.957
E57 [6], 1000 nM | – | 0.983
E57 [6], 3000 nM | – | 1.02
E57 [13], 4.1 nM | 0.935 | –
E57 [13], 12.3 nM | 0.283 | –
E57 [13], 37 nM | 0.726 | –
E57 [13], 111.1 nM | 0.552 | –
E57 [13], 333.3 nM | 0.896 | –
E57 [13], 1000 nM | 1.08 | –
E57 [13], 3000 nM | 2.02 | –
FT3469 [7], 4.1 nM | – | 1.01
FT3469 [7], 12.3 nM | – | 0.924
FT3469 [7], 37 nM | – | 1.24
FT3469 [7], 111.1 nM | – | 1.1
FT3469 [7], 333.3 nM | – | 1.02
FT3469 [7], 1000 nM | – | 0.973
FT3469 [7], 3000 nM | – | 1.02
FT3469 [14], 4.1 nM | 1.11 | –
FT3469 [14], 12.3 nM | 0.614 | –
FT3469 [14], 37 nM | 1.09 | –
FT3469 [14], 111.1 nM | 0.588 | –
FT3469 [14], 333.3 nM | 0.893 | –
FT3469 [14], 1000 nM | 0.525 | –
FT3469 [14], 3000 nM | 1.13 | –

CCOC(=O)OC(C)OC1=C(C(=O)Nc2ccccn2)N(C)S(=O)(=O)c2ccccc21 (stereo unspecified) [Ampiroxicam]
Details | phenotypic distance | surviving fraction
E13 [1], 4.1 nM | – | 0.882
E13 [1], 12.3 nM | – | 0.885
E13 [1], 37 nM | – | 1.02
E13 [1], 111.1 nM | – | 0.926
E13 [1], 333.3 nM | – | 1.08
E13 [1], 1000 nM | – | 0.895
E13 [1], 3000 nM | – | 0.916
E13 [8], 4.1 nM | 0.946 | –
E13 [8], 12.3 nM | 0.661 | –
E13 [8], 37 nM | 0.814 | –
E13 [8], 111.1 nM | 0.688 | –
E13 [8], 333.3 nM | 0.952 | –
E13 [8], 1000 nM | 0.72 | –
E13 [8], 3000 nM | 0.529 | –
E21 [2], 4.1 nM | – | 0.957
E21 [2], 12.3 nM | – | 0.928
E21 [2], 37 nM | – | 0.953
E21 [2], 111.1 nM | – | 0.847
E21 [2], 333.3 nM | – | 1.09
E21 [2], 1000 nM | – | 0.883
E21 [2], 3000 nM | – | 1.01
E21 [9], 4.1 nM | 0.574 | –
E21 [9], 12.3 nM | 0.804 | –
E21 [9], 37 nM | 0.922 | –
E21 [9], 111.1 nM | 0.659 | –
E21 [9], 333.3 nM | 0.834 | –
E21 [9], 1000 nM | 0.819 | –
E21 [9], 3000 nM | 0.71 | –
E28 [3], 4.1 nM | – | 0.815
E28 [3], 12.3 nM | – | 1.1
E28 [3], 37 nM | – | 0.896
E28 [3], 111.1 nM | – | 0.884
E28 [3], 333.3 nM | – | 0.939
E28 [3], 1000 nM | – | 1.08
E28 [3], 3000 nM | – | 0.871
E28 [10], 4.1 nM | 1.28 | –
E28 [10], 12.3 nM | 0.987 | –
E28 [10], 37 nM | 0.538 | –
E28 [10], 111.1 nM | 0.744 | –
E28 [10], 333.3 nM | 0.444 | –
E28 [10], 1000 nM | 0.516 | –
E28 [10], 3000 nM | 0.705 | –
E31 [4], 4.1 nM | – | 0.83
E31 [4], 12.3 nM | – | 0.849
E31 [4], 37 nM | – | 0.967
E31 [4], 111.1 nM | – | 1
E31 [4], 333.3 nM | – | 0.856
E31 [4], 1000 nM | – | 1.02
E31 [4], 3000 nM | – | 1.08
E31 [11], 4.1 nM | 0.739 | –
E31 [11], 12.3 nM | 0.998 | –
E31 [11], 37 nM | 0.78 | –
E31 [11], 111.1 nM | 0.734 | –
E31 [11], 333.3 nM | 0.689 | –
E31 [11], 1000 nM | 0.71 | –
E31 [11], 3000 nM | 0.801 | –
E34 [5], 4.1 nM | – | 1.14
E34 [5], 12.3 nM | – | 0.946
E34 [5], 37 nM | – | 0.986
E34 [5], 111.1 nM | – | 1.1
E34 [5], 333.3 nM | – | 1.01
E34 [5], 1000 nM | – | 0.932
E34 [5], 3000 nM | – | 0.984
E34 [12], 4.1 nM | 0.789 | –
E34 [12], 12.3 nM | 0.855 | –
E34 [12], 37 nM | 0.505 | –
E34 [12], 111.1 nM | 0.762 | –
E34 [12], 333.3 nM | 0.521 | –
E34 [12], 1000 nM | 0.542 | –
E34 [12], 3000 nM | 0.73 | –
E57 [6], 4.1 nM | – | 0.955
E57 [6], 12.3 nM | – | 1.02
E57 [6], 37 nM | – | 0.962
E57 [6], 111.1 nM | – | 1.02
E57 [6], 333.3 nM | – | 0.943
E57 [6], 1000 nM | – | 1.06
E57 [6], 3000 nM | – | 1.08
E57 [13], 4.1 nM | 0.796 | –
E57 [13], 12.3 nM | 0.83 | –
E57 [13], 37 nM | 0.552 | –
E57 [13], 111.1 nM | 0.54 | –
E57 [13], 333.3 nM | 0.507 | –
E57 [13], 1000 nM | 1.03 | –
E57 [13], 3000 nM | 0.908 | –
FT3469 [7], 4.1 nM | – | 0.768
FT3469 [7], 12.3 nM | – | 1.05
FT3469 [7], 37 nM | – | 1.02
FT3469 [7], 111.1 nM | – | 1.05
FT3469 [7], 333.3 nM | – | 1.04
FT3469 [7], 1000 nM | – | 1.08
FT3469 [7], 3000 nM | – | 0.95
FT3469 [14], 4.1 nM | 0.638 | –
FT3469 [14], 12.3 nM | 0.959 | –
FT3469 [14], 37 nM | 0.379 | –
FT3469 [14], 111.1 nM | 1.16 | –
FT3469 [14], 333.3 nM | 0.73 | –
FT3469 [14], 1000 nM | 1.03 | –
FT3469 [14], 3000 nM | 0.924 | –
